± gives the expanded uncertainty stated by the source.
Test: molar heat capacity at constant pressure
Conditions: 101.33 kPa, Crystal, Small sample (50 mg) DSC

O=[PH](O)O [phosphonic acid]
molar heat capacity at constant pressure (243.2 K): 48.3 ± 1.1 J/K/mol | molar heat capacity at constant pressure (244.2 K): 48.54 ± 1.2 J/K/mol | molar heat capacity at constant pressure (245.2 K): 48.62 ± 1.2 J/K/mol | molar heat capacity at constant pressure (246.2 K): 48.87 ± 1.2 J/K/mol | molar heat capacity at constant pressure (247.2 K): 49.03 ± 1.2 J/K/mol | molar heat capacity at constant pressure (248.2 K): 49.36 ± 1.2 J/K/mol | molar heat capacity at constant pressure (249.2 K): 49.69 ± 1.2 J/K/mol | molar heat capacity at constant pressure (250.2 K): 49.77 ± 1.2 J/K/mol | molar heat capacity at constant pressure (251.2 K): 50.1 ± 1.2 J/K/mol | molar heat capacity at constant pressure (252.2 K): 50.35 ± 1.2 J/K/mol | molar heat capacity at constant pressure (253.2 K): 50.59 ± 1.2 J/K/mol | molar heat capacity at constant pressure (254.2 K): 50.59 ± 1.2 J/K/mol | molar heat capacity at constant pressure (255.2 K): 50.84 ± 1.2 J/K/mol | molar heat capacity at constant pressure (256.2 K): 51 ± 1.2 J/K/mol | molar heat capacity at constant pressure (257.2 K): 51.08 ± 1.2 J/K/mol | molar heat capacity at constant pressure (258.2 K): 51.17 ± 1.2 J/K/mol | molar heat capacity at constant pressure (259.2 K): 51.33 ± 1.2 J/K/mol | molar heat capacity at constant pressure (260.2 K): 51.49 ± 1.2 J/K/mol | molar heat capacity at constant pressure (261.2 K): 51.9 ± 1.3 J/K/mol | molar heat capacity at constant pressure (262.2 K): 52.15 ± 1.3 J/K/mol | molar heat capacity at constant pressure (263.2 K): 52.48 ± 1.3 J/K/mol | molar heat capacity at constant pressure (264.2 K): 52.72 ± 1.3 J/K/mol | molar heat capacity at constant pressure (265.2 K): 52.97 ± 1.3 J/K/mol | molar heat capacity at constant pressure (266.2 K): 53.22 ± 1.3 J/K/mol | molar heat capacity at constant pressure (267.2 K): 53.54 ± 1.3 J/K/mol | molar heat capacity at constant pressure (268.2 K): 53.87 ± 1.3 J/K/mol | molar heat capacity at constant pressure (269.2 K): 54.2 ± 1.3 J/K/mol | molar heat capacity at constant pressure (270.2 K): 54.28 ± 1.3 J/K/mol | molar heat capacity at constant pressure (271.2 K): 54.45 ± 1.3 J/K/mol | molar heat capacity at constant pressure (272.2 K): 54.69 ± 1.3 J/K/mol | molar heat capacity at constant pressure (273.2 K): 54.86 ± 1.3 J/K/mol | molar heat capacity at constant pressure (274.2 K): 55.35 ± 1.4 J/K/mol | molar heat capacity at constant pressure (275.2 K): 55.76 ± 1.4 J/K/mol | molar heat capacity at constant pressure (276.2 K): 57.81 ± 1.4 J/K/mol | molar heat capacity at constant pressure (277.2 K): 58.46 ± 1.4 J/K/mol | molar heat capacity at constant pressure (278.2 K): 57.32 ± 1.4 J/K/mol | molar heat capacity at constant pressure (279.2 K): 56.91 ± 1.4 J/K/mol | molar heat capacity at constant pressure (280.2 K): 57.15 ± 1.4 J/K/mol | molar heat capacity at constant pressure (281.2 K): 57.32 ± 1.4 J/K/mol | molar heat capacity at constant pressure (282.2 K): 57.56 ± 1.4 J/K/mol | molar heat capacity at constant pressure (283.2 K): 57.81 ± 1.4 J/K/mol | molar heat capacity at constant pressure (284.2 K): 57.64 ± 1.4 J/K/mol | molar heat capacity at constant pressure (285.2 K): 57.64 ± 1.4 J/K/mol | molar heat capacity at constant pressure (286.2 K): 57.89 ± 1.4 J/K/mol | molar heat capacity at constant pressure (287.2 K): 58.87 ± 1.5 J/K/mol | molar heat capacity at constant pressure (288.2 K): 60.18 ± 1.5 J/K/mol | molar heat capacity at constant pressure (289.2 K): 60.02 ± 1.5 J/K/mol | molar heat capacity at constant pressure (290.2 K): 60.02 ± 1.5 J/K/mol | molar heat capacity at constant pressure (291.2 K): 60.1 ± 1.5 J/K/mol | molar heat capacity at constant pressure (292.2 K): 60.59 ± 1.5 J/K/mol | molar heat capacity at constant pressure (293.2 K): 61.09 ± 1.5 J/K/mol | molar heat capacity at constant pressure (294.2 K): 61 ± 1.5 J/K/mol | molar heat capacity at constant pressure (295.2 K): 61.09 ± 1.5 J/K/mol | molar heat capacity at constant pressure (296.2 K): 61.5 ± 1.5 J/K/mol | molar heat capacity at constant pressure (297.2 K): 61.58 ± 1.5 J/K/mol | molar heat capacity at constant pressure (298.2 K): 62.07 ± 1.6 J/K/mol | molar heat capacity at constant pressure (299.2 K): 62.48 ± 1.6 J/K/mol | molar heat capacity at constant pressure (300.2 K): 62.81 ± 1.6 J/K/mol | molar heat capacity at constant pressure (301.2 K): 63.38 ± 1.6 J/K/mol | molar heat capacity at constant pressure (302.2 K): 63.63 ± 1.6 J/K/mol | molar heat capacity at constant pressure (303.2 K): 64.45 ± 1.6 J/K/mol | molar heat capacity at constant pressure (304.2 K): 64.94 ± 1.6 J/K/mol | molar heat capacity at constant pressure (305.2 K): 65.35 ± 1.6 J/K/mol | molar heat capacity at constant pressure (306.2 K): 65.76 ± 1.6 J/K/mol | molar heat capacity at constant pressure (307.2 K): 66.33 ± 1.6 J/K/mol | molar heat capacity at constant pressure (308.2 K): 66.74 ± 1.6 J/K/mol | molar heat capacity at constant pressure (309.2 K): 67.4 ± 1.6 J/K/mol | molar heat capacity at constant pressure (310.2 K): 67.65 ± 1.6 J/K/mol | molar heat capacity at constant pressure (311.2 K): 68.06 ± 1.6 J/K/mol | molar heat capacity at constant pressure (312.2 K): 68.71 ± 1.7 J/K/mol | molar heat capacity at constant pressure (313.2 K): 69.37 ± 1.7 J/K/mol | molar heat capacity at constant pressure (314.2 K): 70.11 ± 1.7 J/K/mol | molar heat capacity at constant pressure (315.2 K): 70.35 ± 1.7 J/K/mol | molar heat capacity at constant pressure (316.2 K): 71.09 ± 1.7 J/K/mol | molar heat capacity at constant pressure (317.2 K): 71.66 ± 1.7 J/K/mol | molar heat capacity at constant pressure (318.2 K): 72.48 ± 1.8 J/K/mol | molar heat capacity at constant pressure (319.2 K): 73.22 ± 1.8 J/K/mol | molar heat capacity at constant pressure (320.2 K): 73.88 ± 1.8 J/K/mol | molar heat capacity at constant pressure (321.2 K): 75.03 ± 1.8 J/K/mol | molar heat capacity at constant pressure (322.2 K): 75.93 ± 1.9 J/K/mol | molar heat capacity at constant pressure (323.2 K): 77.24 ± 1.9 J/K/mol | molar heat capacity at constant pressure (324.2 K): 78.55 ± 1.9 J/K/mol | molar heat capacity at constant pressure (325.2 K): 80.44 ± 2 J/K/mol | molar heat capacity at constant pressure (326.2 K): 81.91 ± 2 J/K/mol | molar heat capacity at constant pressure (327.2 K): 83.64 ± 2 J/K/mol | molar heat capacity at constant pressure (328.2 K): 85.11 ± 2 J/K/mol
